This passage reports inhibition results from patent US12630534B2 (TAKEDA PHARMACEUTICAL COMPANY LIMITED, priority 2020, dated 2026).

Usually inhibition stands for the relative decrease from the control value, in per cent.

The assay deals with T1, human GPR139 (Homo sapiens, UniProt Q6DWJ6).
T1 construct: expressed in transfected cells; host or cells: CHO-TREx (Life Technologies) cells, expression induced with doxycycline
T1 sequence (Q6DWJ6 1-353): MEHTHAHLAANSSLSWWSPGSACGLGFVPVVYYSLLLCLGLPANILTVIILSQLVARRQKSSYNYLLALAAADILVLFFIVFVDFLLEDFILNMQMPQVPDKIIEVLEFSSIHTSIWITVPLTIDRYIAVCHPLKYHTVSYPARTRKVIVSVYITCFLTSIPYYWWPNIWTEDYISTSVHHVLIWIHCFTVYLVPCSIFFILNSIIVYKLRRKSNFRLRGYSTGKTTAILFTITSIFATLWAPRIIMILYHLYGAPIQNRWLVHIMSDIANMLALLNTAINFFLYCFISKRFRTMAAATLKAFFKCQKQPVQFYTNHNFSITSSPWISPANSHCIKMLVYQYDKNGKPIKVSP
The assay can be described thus: Inhibition rate of the amount of IP1 in GPR139-expressed CHO cells (inverse agonist assay, Test Example 2). Format: cell-based. As to conditions: CHO, relative value, inhibition rate of Example Compound 2 in Test Example 1 defined as 100%. The protocol:
The measurement of IP1 was made using an IP-ONE HTFR assay kit (cis-bio) and CHO-TREx (Life Technologies) cells stably transfected with GPR139. The CHO-TREx cells expressed human GPR139 with a tetracycline-inducing element. The cells were cultured in a medium containing F12K and 10% tetracycline-free FBS, and the expression of human GPR139 was induced over the course of 17 hours under conditions of 37° C. and 5% CO2 in the presence of 2 μg/mL of doxycycline (Clontech, 631311) in the growth medium on the day before assay. On the day of the test, after the cells were washed with 10 mL of PBS, the cells were detached with TrypLE Express (Life Technologies) and centrifuged at 1,000 rpm to form pellets, and a cell suspension was then prepared using a stimulation buffer (cis-bio, included in the IP-ONE HTRF assay kit).
The compound was diluted with the stimulation buffer, and 4 μL was added to a 384-well white assay plate (Greiner). The cell suspension was added so that there were 2000 cells per well, and the assay plate was left to stand for 40 minutes at 37° C. Equal amounts of IP1-d2 and Ab-Crp solutions (both available from cis-bio, included in the IP-ONE HTRF assay kit) prepared with a lysis buffer (cis-bio, included in the IP-ONE HTRF assay kit) were mixed, and 4 μL was added to the assay plate and left to stand for one hour at room temperature. After the fluorescence strengths of two wavelengths were measured by the HTRF settings of Envision (PerkinElmer), the value of Ratio={(Signal 665 nm)/(Signal 615 nm)}×10000 was calculated.
Measurement of the Inhibition Rate of the Amount of IP1 in GPR139-Expressed CHO Cells (Inverse Agonist Assay)
The activities of the compounds of Examples 1 and 3 to 167 were expressed as relative values in Table 2 by measuring the inhibition rate of the amount of IP1 with the same method as in Test Example 1 and defining the inhibition rate of the amount of IP1 of Example Compound 2 in Test Example 1 as […].
As for `CCn1cc(Cn2c(C)cn(-c3cc(N4CCO[C@H](C)C4)cc(C(F)(F)F)c3F)c2=O)cn1` [Example 25, 3-[(1-ethyl-1H-pyrazol-4-yl)methyl]-1-{2-fluoro-5-[(2R)-2-methylmorpholin-4-yl]-3-(trifluoromethyl)phenyl}-4-methyl-1,3-dihydro-2H-imidazol-2-one], the inhibition at 30 µM is 100%.
Turning to `CCn1cc(Cn2cc(C)n(-c3cc(N4CCO[C@H](C)C4)cc(C(F)(F)F)c3F)c2=O)cn1` [Example 4, 1-[(1-ethyl-1H-pyrazol-4-yl)methyl]-3-{2-fluoro-5-[(2R)-2-methylmorpholin-4-yl]-3-(trifluoromethyl)phenyl}-4-methyl-1,3-dihydro-2H-imidazol-2-one], the inhibition at 30 µM is 102%.
As to `CCn1cc(Cn2cc(C)n(-c3cc(OCOC)cc(C(F)(F)F)c3)c2=O)cn1` [Example 48, 1-[(1-ethyl-1H-pyrazol-4-yl)methyl]-3-[3-(methoxymethoxy)-5-(trifluoromethyl)phenyl]-4-methyl-1,3-dihydro-2H-imidazol-2-one], the inhibition at 30 µM was determined as 101%.
With `CCn1cc(Cn2c(C)cn(-c3nc(N4CCO[C@H](C)C4)cc(C(F)(F)F)c3Cl)c2=O)cn1` [Example 84, 1-{3-chloro-6-[(2R)-2-methylmorpholin-4-yl]-4-(trifluoromethyl)pyridin-2-yl}-3-[(1-ethyl-1H-pyrazol-4-yl)methyl]-4-methyl-1,3-dihydro-2H-imidazol-2-one], the inhibition at 30 µM was 99%.
As for `CC(C)n1cc(Cn2ccn(-c3nc(NCC4(F)CCC4)cc(C(F)(F)F)c3F)c2=O)cn1` [Example 133, 1-[3-fluoro-6-{[(1-fluorocyclobutyl)methyl]amino}-4-(trifluoromethyl)pyridin-2-yl]-3-{[1-(propan-2-yl)-1H-pyrazol-4-yl]methyl}-1,3-dihydro-2H-imidazol-2-one], the inhibition at 30 µM turned out to be 99%.
Regarding `Cc1cn(-c2cc(N3CCO[C@H](C)C3)cc(C(F)F)c2F)c(=O)n1Cc1cnn(C(C)C)c1` [Example 98, 1-{3-(difluoromethyl)-2-fluoro-5-[(2R)-2-methylmorpholin-4-yl]phenyl}-4-methyl-3-{[1-(propan-2-yl)-1H-pyrazol-4-yl]methyl}-1,3-dihydro-2H-imidazol-2-one], the inhibition at 30 µM came to 99%.
As for `CCn1cc(Cn2ccn(-c3cc(N4CCC(F)(F)C4)cc(C(F)(F)F)c3F)c2=O)cn1` [Example 39, 1-[5-(3,3-difluoropyrrolidin-1-yl)-2-fluoro-3-(trifluoromethyl)phenyl]-3-[(1-ethyl-1H-pyrazol-4-yl)methyl]-1,3-dihydro-2H-imidazol-2-one], the inhibition at 30 µM was found to be 99%.
Turning to `CCn1cc(Cn2cc(C)n(-c3cc(N4CCOC(F)(F)C4)cc(C(F)(F)F)c3)c2=O)cn1` [Example 41, 3-[3-(2,2-difluoromorpholin-4-yl)-5-(trifluoromethyl)phenyl]-1-[(1-ethyl-1H-pyrazol-4-yl)methyl]-4-methyl-1,3-dihydro-2H-imidazol-2-one], the inhibition at 30 µM turned out to be 101%.
For `CCn1cc(Cn2c(C)cn(-c3nc(N4CCOC(C)(C)C4)cc(C(F)(F)F)c3C)c2=O)cn1` [Example 120, 1-[6-(2,2-dimethylmorpholin-4-yl)-3-methyl-4-(trifluoromethyl)pyridin-2-yl]-3-[(1-ethyl-1H-pyrazol-4-yl)methyl]-4-methyl-1,3-dihydro-2H-imidazol-2-one], the inhibition at 30 µM was 102%.
Turning to `CCn1cc(Cn2ccn(-c3cc(N4CCC(F)(F)CC4)cc(N4CCC(F)(F)CC4)c3F)c2=O)cn1` [Example 152, 1-[3,5-bis(4,4-difluoropiperidin-1-yl)-2-fluorophenyl]-3-[(1-ethyl-1H-pyrazol-4-yl)methyl]-1,3-dihydro-2H-imidazol-2-one], the inhibition at 30 µM came out at 98%.
As to `CC(C)n1cc(Cn2ccn(-c3cc(N(C)C4CCOCC4)cc(C(F)(F)F)c3F)c2=O)cn1` [Example 61, 1-{2-fluoro-5-[methyl(oxan-4-yl)amino]-3-(trifluoromethyl)phenyl}-3-{[1-(propan-2-yl)-1H-pyrazol-4-yl]methyl}-1,3-dihydro-2H-imidazol-2-one], the inhibition at 30 µM is 102%.
`CCn1cc(Cn2c(C)nn(-c3cc(N4CCC(F)(F)CC4)cc(C(F)(F)F)c3C)c2=O)cn1` [Example 161, 2-[5-(4,4-difluoropiperidin-1-yl)-2-methyl-3-(trifluoromethyl)phenyl]-4-[(1-ethyl-1H-pyrazol-4-yl)methyl]-5-methyl-2,4-dihydro-3H-1,2,4-triazol-3-one]: the inhibition at 30 µM was 100%.
Under `CCn1cc(Cn2cc(C)n(-c3cc(OC[C@@H]4CCCO4)cc(C(F)(F)F)c3)c2=O)cn1` [Example 66, 1-[(1-ethyl-1H-pyrazol-4-yl)methyl]-4-methyl-3-[3-{[(2S)-oxolan-2-yl]methoxy}-5-(trifluoromethyl)phenyl]-1,3-dihydro-2H-imidazol-2-one] stands 99%; under `Cc1nn(-c2cc(N3CCO[C@H](C)C3)cc(C(F)(F)F)c2F)c(=O)n1Cc1cnn(C(C)C)c1` [Example 91, 2-{2-fluoro-5-[(2R)-2-methylmorpholine-4-yl]-3-(trifluoromethyl)phenyl}-5-methyl-4-{[1-(propane-2-yl)-1H-pyrazole-4-yl]methyl}-2,4-dihydro-3H-1,2,4-triazole-3-one], 100%.
For the compound `CC(C)n1cc(Cn2ccn(-c3nc(N4CCOC(C)(C)C4)cc(C(F)(F)F)c3F)c2=O)cn1` [Example 132, 1-[6-(2,2-dimethylmorpholin-4-yl)-3-fluoro-4-(trifluoromethyl)pyridin-2-yl]-3-{[1-(propan-2-yl)-1H-pyrazol-4-yl]methyl}-1,3-dihydro-2H-imidazol-2-one], the inhibition at 30 µM worked out at 99%.
Consider `CCn1cc(Cn2cc(C)n(-c3cc(Oc4ccc(F)cc4)cc(C(F)(F)F)c3)c2=O)cn1` [Example 5, 1-[(1-ethyl-1H-pyrazol-4-yl)methyl]-3-[3-(4-fluorophenoxy)-5-(trifluoromethyl)phenyl]-4-methyl-1,3-dihydro-2H-imidazol-2-one], for which the inhibition at 30 µM is 99%.
Turning to `CCn1cc(Cn2cc(C)n(-c3nc(N4CCO[C@H](C)C4)cc(C(F)(F)F)n3)c2=O)cn1` [Example 124, 1-[(1-ethyl-1H-pyrazol-4-yl)methyl]-4-methyl-3-{4-[(2R)-2-methylmorpholin-4-yl]-6-(trifluoromethyl)pyrimidin-2-yl}-1,3-dihydro-2H-imidazol-2-one], the inhibition at 30 µM is 103%.
Turning to `CCn1cc(Cn2cc(C)n(-c3cc(C(F)(F)F)cc(N4CCO[C@H](C)C4)n3)c2=O)cn1` [Example 18, 1-[(1-Ethyl-1H-pyrazole-4-yl)methyl]-4-methyl-3-{6-[(2R)-2-methylmorpholine-4-yl]-4-(trifluoromethyl)pyridine-2-yl}-1,3-dihydro-2H-imidazole-2-one], the inhibition at 30 µM was 101%.
Regarding `CCn1cc(Cn2c(C)cn(-c3cc(N(C)C4CCOCC4)cc(C(F)(F)F)c3Cl)c2=O)cn1` [Example 58, 1-{2-chloro-5-[methyl(oxan-4-yl)amino]-3-(trifluoromethyl)phenyl}-3-[(1-ethyl-1H-pyrazol-4-yl)methyl]-4-methyl-1,3-dihydro-2H-imidazol-2-one], the inhibition at 30 µM was determined as 98%.
`CCn1cc(Cn2c(C)cn(-c3cc(N4CCO[C@H](C)C4)cc(C(F)(F)F)c3Cl)c2=O)cn1` [Example 57, 1-{2-chloro-5-[(2R)-2-methylmorpholin-4-yl]-3-(trifluoromethyl)phenyl}-3-[(1-ethyl-1H-pyrazol-4-yl)methyl]-4-methyl-1,3-dihydro-2H-imidazol-2-one]: the inhibition at 30 µM turned out to be 101%.
With `CCn1cc(Cn2ccn(-c3cc(N4C[C@@H](C)O[C@@H](C)C4)cc(C(F)(F)F)c3F)c2=O)cn1` [Example 31, 1-{5-[(2R,6S)-2,6-dimethylmorpholin-4-yl]-2-fluoro-3-(trifluoromethyl)phenyl}-3-[(1-ethyl-1H-pyrazol-4-yl)methyl]-1,3-dihydro-2H-imidazol-2-one], the inhibition at 30 µM was 100%.
Next, `Cc1cn(Cc2cnn(C(C)C)c2)c(=O)n1-c1cc(C(F)(F)F)cc(N(C)C2CCOCC2)n1` [Example 128, 4-methyl-3-{6-[methyl(oxan-4-yl)amino]-4-(trifluoromethyl)pyridin-2-yl}-1-{[1-(propan-2-yl)-1H-pyrazol-4-yl]methyl}-1,3-dihydro-2H-imidazol-2-one]: 101%.
